# Measurements taken from PMC10817945, “Design of a novel analogue peptide with potent antibiofilm activities against Staphylococcus aureus based upon a sapecin B-derived peptide” (Scientific Reports, 2024).
# Read-outs that look alike come from different tables or passages of the source. Non-standard residues stand in square brackets, D forms with d. Residues, ends and D or L forms follow the SMILES beside them.
# Columns and labels:
# [1] = tested on: S. aureus strains; format: cell-based, Staphylococcus aureus; conditions: for inhibition of biofilm formation: strains, 24 h
# Description: (§1) To investigate the inhibitory effect of KLK and mKLK peptides on bacterial surface attachment and biofilm formation, the bacterial suspension in TSB with a concentration of 10^7 CFU/ml was prepared from overnight culture. An aliquot of 100 μl of the bacterial suspension was added to wells of 96-well plates containing 100 μl of the peptides solution with concentrations of 1×, 1/2× and 1/4× MIC, resulting in the final peptides concentrations of 1/2×, 1/4× and 1/8× MIC. To investigate the inhibitory effect of the peptides on surface attachment the incubation was performed at 37 °C for 2 h and to evaluate their inhibitory activity on biofilm formation the incubation was performed at 37 °C for 24 h. The wells containing only TSB medium were used as negative controls. After incubation, the contents of the wells were removed and washed three times with PBS and the wells were stained with 200 μl of 0.1% crystal violet for 20 min. The plates were washed again and excess dye was removed. A volume of 200 μl of 95% ethanol was added to each well for 20 min and absorbance was measured at 570 nm by a microplate reader.
# [2] = tested on: preformed S. aureus biofilms; format: cell-based, Staphylococcus aureus
# Description: The eradicative activity of KLK and mKLK peptides against preformed S. aureus biofilms was evaluated by determining MBEC, as previously described. The 24-h biofilms developed in TSB in a 96-well plate were washed three times with 200 μl PBS solution. Concentrations of the peptides ranging from 2 to 1024 µg/ml were prepared. A volume of 100 μl of each concentration was added to a corresponding well, and plates were incubated for 18–20 h at 37 °C. Then, wells were washed with sterile PBS solution, and 100 μl of PBS solution was added. The wells were thoroughly scraped with a sterile pipette tip, vortexed and sonicated to release the biofilm cells from the well surface. Subsequently, 10 μl of well contents were plated on MHA. Colonies were counted after 20 h at 37 °C. The MBEC was defined as the lowest concentration of peptide that inhibited bacterial regrowth.
# [3] = tested on: S. aureus strains; assay: Inhibition of bacterial surface attachment (crystal violet); format: cell-based, Staphylococcus aureus
# Description: as §1
# [4] = tested on: one MRSA and reference strain (ATCC25923); assay: Time-kill kinetics assay
# Description: The peptide-free control was included for each strain. Following incubation at 37 °C for 0, 0.25, 0.5, 1, 2, 4, 5, and 24 h, each sample was serially diluted, plated onto Mueller–Hinton (MH) agar (Merck, Germany) plates and incubated at 37 °C. The viable plate count method was performed after incubation for 24 h and the counts were expressed as Log CFU/ml[44].
smiles,measurement,setting,value
CC(C)C[C@@H](NC(=O)[C@H](N)CCCCN)C(=O)N[C@H](CCCCN)C(=O)N[C@H](CC(C)C)C(=O)N[C@H](CC(C)C)C(=O)N[C@H](CC(C)C)C(=O)N[C@H](CC(C)C)C(=O)N[C@H](CC(C)C)C(=O)N[C@H](CCCCN)C(=O)N[C@H](CC(C)C)C(=O)N[C@H](CCCCN)C(N)=O [KLK] (H-[dK][dL][dK][dL][dL][dL][dL][dL][dK][dL][dK]-NH2; N-terminus assumed),"crystal violet absorbance at 570 nm, biofilm formation, Mean±SD","[1]; MRSA-3, 1/2MIC, control 1.541±0.02",0.204±0.03
same,"crystal violet absorbance at 570 nm, biofilm formation, Mean±SD","[1]; MRSA-3, 1/4MIC, control 1.541±0.02",1.739±0.002
same,"crystal violet absorbance at 570 nm, biofilm formation, Mean±SD","[1]; MRSA-3, 1/8MIC, control 1.541±0.02",1.441±0.04
same,"crystal violet absorbance at 570 nm, biofilm formation, Mean±SD","[1]; MSSA-1, 1/2MIC, control 2.190±0.01",1.609±0.03
same,"crystal violet absorbance at 570 nm, biofilm formation, Mean±SD","[1]; MSSA-1, 1/4MIC, control 2.190±0.01",1.971±0.10
same,"crystal violet absorbance at 570 nm, biofilm formation, Mean±SD","[1]; MSSA-1, 1/8MIC, control 2.190±0.01",2.007±0.13
same,"crystal violet absorbance at 570 nm, biofilm formation, Mean±SD","[1]; MSSA-2, 1/2MIC, control 1.802±0.02",1.261±0.01
same,"crystal violet absorbance at 570 nm, biofilm formation, Mean±SD","[1]; MSSA-2, 1/4MIC, control 1.802±0.02",1.627±0.01
same,"crystal violet absorbance at 570 nm, biofilm formation, Mean±SD","[1]; MSSA-2, 1/8MIC, control 1.802±0.02",1.633±0.04
same,inhibition of biofilm formation,[1]; 2,48-66%
same,inhibition of biofilm formation,[1]; 4,9-11%
same,inhibition of biofilm formation,[1]; 8,6-9%
same,MBEC,[2]; ATCC25923,512 µg/mL
same,MBEC,[2]; MRSA-1,1024 µg/mL
same,MBEC,[2]; MRSA-2,1024 µg/mL
same,MBEC,[2]; MRSA-3,1024 µg/mL
same,MBEC,[2]; MSSA-1,512 µg/mL
same,MBEC,[2]; MSSA-2,512 µg/mL
same,"MBEC, range over isolates",[2]; preformed biofilms,512 to 1024 µg/mL
same,"crystal violet absorbance at 570 nm, bacterial attachment, Mean±SD","[3]; ATCC25923, 1/2MIC, control 2.136±0.01",1.904±0.08
same,"crystal violet absorbance at 570 nm, bacterial attachment, Mean±SD","[3]; ATCC25923, 1/4MIC, control 2.136±0.01",1.965±0.03
same,"crystal violet absorbance at 570 nm, bacterial attachment, Mean±SD","[3]; ATCC25923, 1/8MIC, control 2.136±0.01",2.03±0.07
same,"crystal violet absorbance at 570 nm, bacterial attachment, Mean±SD","[3]; MRSA-1, 1/2MIC, control 1.861±0.02",1.508±0.03
same,"crystal violet absorbance at 570 nm, bacterial attachment, Mean±SD","[3]; MRSA-1, 1/4MIC, control 1.861±0.02",1.712±0.01
same,"crystal violet absorbance at 570 nm, bacterial attachment, Mean±SD","[3]; MRSA-1, 1/8MIC, control 1.861±0.02",1.8±0.17
same,"crystal violet absorbance at 570 nm, bacterial attachment, Mean±SD","[3]; MRSA-2, 1/2MIC, control 2.311±0.005",2.082±2.02
same,"crystal violet absorbance at 570 nm, bacterial attachment, Mean±SD","[3]; MRSA-2, 1/4MIC, control 2.311±0.005",2.146±0.008
same,"crystal violet absorbance at 570 nm, bacterial attachment, Mean±SD","[3]; MRSA-2, 1/8MIC, control 2.311±0.005",2.198±0.04
same,"crystal violet absorbance at 570 nm, bacterial attachment, Mean±SD","[3]; MRSA-3, 1/2MIC, control 1.491±0.06",1.031±0.07
same,"crystal violet absorbance at 570 nm, bacterial attachment, Mean±SD","[3]; MRSA-3, 1/4MIC, control 1.491±0.06",1.369±0.01
same,"crystal violet absorbance at 570 nm, bacterial attachment, Mean±SD","[3]; MRSA-3, 1/8MIC, control 1.491±0.06",1.428±0.06
same,"crystal violet absorbance at 570 nm, bacterial attachment, Mean±SD","[3]; MSSA-1, 1/2MIC, control 2.107±0.08",1.89±0.002
same,"crystal violet absorbance at 570 nm, bacterial attachment, Mean±SD","[3]; MSSA-1, 1/4MIC, control 2.107±0.08",1.925±0.06
same,"crystal violet absorbance at 570 nm, bacterial attachment, Mean±SD","[3]; MSSA-1, 1/8MIC, control 2.107±0.08",2.006±0.01
same,"crystal violet absorbance at 570 nm, bacterial attachment, Mean±SD","[3]; MSSA-2, 1/2MIC, control 2.061±0.01",1.804±0.03
same,"crystal violet absorbance at 570 nm, bacterial attachment, Mean±SD","[3]; MSSA-2, 1/8MIC, control 2.061±0.01",1.958±0.07
same,time after which no regrowth was observed,"[4]; ATCC 25923, 1 × MIC (4 μg/ml)",30 min
same,time after which no regrowth was observed,"[4]; ATCC 25923, 2 × MIC (8 μg/ml)",15 min
same,time after which no regrowth was observed,"[4]; MRSA, 1 × MIC",300 min
same,reduction in viable cell count,"[4]; MRSA, 1 × MIC (8 μg/ml), within 2 h",~ 1 log
